Our source for the IC50 values is ChEMBL document CHEMBL5727755, “Boronic acid derivatives” (2020).

The test is described as follows: Determination of LMP7 Activity: Measurement of LMP7 inhibition is performed in 384 well format based on fluorescence intensity assay.Purified human immuno proteasome (0.25 nM) and serial diluted compounds in DMSO (range of concentrations from 30 μM to 15 pM) or controls are incubated for 20 minutes or 120 minutes (long incubation) at 25° C. in assay buffer containing 50 mM Tris pH 7.4, 0.03% SDS, 1 mM EDTA and 1% DMSO. The reaction is initiated by the addition of the fluorogenic peptide substrate, Suc-LLVY-AMC (Bachem 1-1395), at a concentration of 40 μM. After 60 minutes of incubation at 37° C., fluorescence intensity is measured at λex=350 nm and λem=450 nm with a fluorescence reader (Perkin Elmer Envision reader or equivalent).

What is called IC50 is the concentration needed to halve the response being measured. On to `CC#CC(=O)N(CCC)CC(=O)N[C@@H](Cc1ccc(C)cc1C)B(O)O`, for which the IC50 is below 50 nM. With `C=CS(=O)(=O)N(C)CC(=O)N[C@@H](Cc1ccc(C)c(C)c1)B(O)O`, the IC50 result is “in the range around 275 nM”.
